# Laboratory results published in patent US11622976B2, “Urine alkali agent useful for treatment of cancer patient” (Delta-Fly Pharma, Inc., priority 2018, dated 2023).
# Entries after “also recorded” stand apart in the source; their conditions may differ.
# Key:
# lung cancer = assay: Urinary alkalinization therapy, lung cancer patient; format: in vivo, human
# Text: A patient successively underwent a surgery for breast cancer in March, 2009, a surgery for endometrial cancer in October, 2010 and a surgery for lung cancer (adenocarcinoma, upper right lobe) in December, 2011.
# From January, 2012, application of a urinary alkalinization therapy, including orally administering magnesium oxide (laxative, Magmitt (manufactured by Kyowa Chemical Industry Co., Ltd.)) every day in a dose of 2 g per day after a meal three times (the dose being divided into three portions), was initiated.
# [1] = tested on: gastric cancer (gastroesophageal junction cancer); settings: cited from earlier work
# B16 melanoma cells = settings: aqueous solution 200 mmol/L (17 g/L) fed, with cancer immunotherapy by e.g. a cancer immunity-checkpoint inhibitor; vs water without sodium hydrogen carbonate; cited from earlier work
# cancer cells = settings: pHe shifted from acidic to alkaline range by gradually increasing the concentration in the serum; cited from earlier work
# [2] = tested on: breast cancer associated with lung metastasis; assay: Urinary alkalinization therapy, breast cancer patient with lung metastasis (person); format: in vivo, human
# Method: A patient was diagnosed with breast cancer […] and underwent a surgical operation. In January, 2011, transfer of recurrent breast cancer to the lung was found. Administration of Taxotere (80 mg/m^2) was continued at the intervals of 3 weeks. […] Because of this, the dose of Taxotere was reduced to 60 mg/m^2 (intervals of 3 weeks).
compound,measurement,setting,value
[O]=[Mg] [magnesium oxide],urine pH value,"lung cancer; continuous oral administration, 2 g per day",kept in the alkaline pH range
same,"recurrence/metastasis, development of another cancer","lung cancer; oral, 2 g per day in three portions, every day from January, 2012, after surgeries",recurrence and metastasis of lung cancer have not been observed; also recorded: Neither development of another cancer nor recurrence/metastasis has been found
Opdivo: immune checkpoint inhibitor containing anti-human PD-1 monoclonal antibody (nivolumab),median overall survival,"[1]; gastric cancer patients (gastroesophageal junction cancer), Lancet. 2017 Dec. 2, 390 (10111): 2461-2471",about 5.26 months
same,tumor shrinkage and decrease of a tumor marker level,[1]; patients with end-stage gastric cancer,seldom confirmed
O=C([O-])O.[Na+] [sodium hydrogen carbonate],antitumor effect,B16 melanoma cells,a significantly high antitumor effect is obtained
same,proliferation and invasion of cancer cells,cancer cells,the proliferation and invasion of cancer cells can be suppressed
"CC(=O)O[C@@]12CO[C@@H]1C[C@H](O)[C@@]1(C)C(=O)[C@H](O)C3=C(C)[C@@H](OC(=O)[C@H](O)[C@@H](NC(=O)OC(C)(C)C)c4ccccc4)C[C@@](O)([C@@H](OC(=O)c4ccccc4)[C@H]21)C3(C)C [Taxotere, docetaxel]",side effect,"[2]; Taxotere alone 80 mg/m^2 every 3 weeks, six months",severe side effect
same,disease state,[2]; Taxotere alone reduced to 60 mg/m^2 every 3 weeks,the disease did not become stable
